In ChEMBL document CHEMBL3352491, “Novel semicarbazides and ureas of primaquine with bulky aryl or hydroxyalkyl substituents: synthesis, cytostatic and antioxidative activity” (Eur J Med Chem, 2014):

Columns and labels:
[1] = Antioxidant activity assessed as inhibition of lipid peroxidation at 100 uM by spectrophotometry; type: physicochemical
Lipoxygenase = Lipoxygenase (Glycine max, UniProt Q39829); assay: Inhibition of soybean LOX using sodium linoleate as substrate by spectrophotometry
SW-620 = assay: Cytostatic activity against human SW620 cells assessed as growth inhibition after 3 to 4 days by MTT assay; type: functional, cell-based
[2] = Cytostatic activity against human H460 cells assessed as growth inhibition after 3 to 4 days by MTT assay; type: functional, cell-based; conditions: NCI-H460
L1210 = assay: Cytostatic activity against mouse L1210 cells assessed as growth inhibition after 3 to 4 days by MTT assay; type: functional, cell-based
[3] = Cytostatic activity against human MIAPaCa2 cells assessed as growth inhibition after 3 to 4 days by MTT assay; type: functional, cell-based; conditions: MIA PaCa-2
MCF7 = assay: Cytostatic activity against human MCF7 cells assessed as growth inhibition after 3 to 4 days by MTT assay; type: functional, cell-based
[4] = Antioxidant activity assessed as DPPH scavenging activity at 100 uM after 20 mins by spectrophotometry; type: physicochemical
HeLa = assay: Cytostatic activity against human HeLa cells assessed as growth inhibition after 3 to 4 days by MTT assay; type: functional, cell-based
[5] = Antioxidant activity assessed as DPPH scavenging activity at 100 uM after 60 mins by spectrophotometry; type: physicochemical; conditions: 1 h
CCRF-CEM = assay: Cytostatic activity against human CEM cells assessed as growth inhibition after 3 to 4 days by MTT assay; type: functional, cell-based
[6] = Cytostatic activity against human Molt4/C8 cells assessed as growth inhibition after 3 to 4 days by MTT assay; type: functional, cell-based; conditions: MOLT-4
[7] = biological target: Lipoxygenase (Glycine max) (UniProt Q39829); assay: Inhibition of soybean LOX using sodium linoleate as substrate at 100 uM by spectrophotometry

Row | SMILES | inhibition (INH) [1] | IC50 (Lipoxygenase; read-out: IC50) [µM] | IC50 (SW-620) [µM] | IC50 (L1210) [µM] | IC50 (MCF7) [µM] | Activity [4] | IC50 (HeLa) [µM] | Activity [5] | IC50 (CCRF-CEM) [µM] | IC50 (Lipoxygenase) | inhibition [7] [%] | IC50 [2] [µM] | IC50 [3] [µM] | IC50 [6] [µM]
1 | CN(C(=O)n1nnc2ccccc21)C(c1ccccc1)c1ccccc1 | 76% | 87.5 | ≥ 100 | 15 | 23 | 3% | 25 | Not Active | 24 |  |  | 27 | 26 | 28
2 | NNC(=O)NC(c1ccccc1)c1ccc(Cl)cc1 (stereo not given) | 52% |  | > 100 | ≥ 250 | ≥ 100 | 14% | 182 | 27% | 217 |  | 9 | > 100 | 178 | ≥ 250
3 | CCOC(=O)NC(c1ccccc1)c1ccc(Cl)cc1 (stereo not given) | 21% |  | > 100 | > 250 | > 100 | Not Active | > 250 | Not Active | > 250 |  |  | > 100 | 142 | > 250
4 | O=C1NCCN1C(c1ccccc1)(c1ccccc1)c1ccccc1 | 20% |  | ≥ 100 | 68 | 63 | Not Active | 102 | Not Active | 27 |  | 6 | > 100 | 31 | 21
5 | COc1cc(NC(C)CCCNC(=O)NNC(=O)NCCCO)c2ncccc2c1 (stereo not given) | 45% |  | > 100 | > 250 | 13 | 9% | > 250 | 20% | > 250 | Not Active |  | > 100 | ≥ 250 | > 250
6 | COc1cc(NC(C)CCCNC(=O)NNC(=O)NCCCCCO)c2ncccc2c1 (stereo not given) | 54% |  | > 100 | > 250 | 4 | 14% | ≥ 250 | 32% | 170 |  | 4 | > 100 | 168 | ≥ 250
7 | COc1cc(NC(C)CCCNC(=O)NNC(=O)N(CCO)CCO)c2ncccc2c1 (stereo not given) | 43% |  | > 100 | > 250 | 29 | 25% | > 250 | 45% | > 250 |  | 30 | > 100 | > 250 | > 250
8 | CCOC(=O)N(C)C(c1ccccc1)c1ccccc1 | Not Active |  | 27 | 96 | 26 | Not Active | 80 | Not Active | 108 |  |  | ≥ 100 | 94 | 105
9 | CN(C(=O)NN)C(c1ccccc1)c1ccccc1 | 7% |  | > 100 | ≥ 250 | ≥ 100 | 24% | 174 | 47% | 127 |  |  | > 100 | 127 | 144
10 | COc1cc(NC(C)CCCNC(=O)NNC(=O)NC(CO)(CO)CO)c2ncccc2c1 (stereo not given) | 49% |  | > 100 | > 250 | 28 | 18% | > 250 | 40% | > 250 |  | 6 | > 100 | > 250 | > 250
11 | Cc1c(C)c2c(c(C)c1O)CCC(C)(C(=O)O)O2 (stereo not given) [TROLOX] | 63% |  |  |  |  |  |  |  |  |  |  |  |  | 
12 | O=C(NC(c1ccccc1)c1ccc(Cl)cc1)n1nnc2ccccc21 (stereo not given) | 63% |  | 23 | 67 | 42 | 24% | 87 | 12% | 116 |  | 28 | 18 | 110 | 176
13 | O=C(NC(c1ccccc1)c1ccc(Cl)cc1)NC(c1ccccc1)c1ccc(Cl)cc1 (stereo not given) | 33% |  | > 100 | 250 | > 100 | Not Active | > 250 | Not Active | > 250 |  | 38 | > 100 | 97 | > 250

Second part, led by results:

Row | inhibition (INH) [1] | IC50 (Lipoxygenase; read-out: IC50) [µM] | IC50 (SW-620) [µM] | IC50 (L1210) [µM] | IC50 (MCF7) [µM] | Activity [4] | IC50 (HeLa) [µM] | Activity [5] | IC50 (CCRF-CEM) [µM] | IC50 (Lipoxygenase) | inhibition [7] [%] | SMILES | IC50 [2] [µM] | IC50 [3] [µM] | IC50 [6] [µM]
14 | 90% | 57.9 | > 100 | 94 | > 100 | 12% | 186 | 24% | 86 |  |  | COc1cc(NC(C)CCCNC(=O)NC(c2ccccc2)c2ccc(Cl)cc2)c2ncccc2c1 (stereo not given) | > 100 | 181 | ≥ 250
15 | 27% |  | > 100 | > 250 | 13 | Not Active | 196 | 20% | > 250 | Not Active |  | COc1cc(NC(C)CCCNC(=O)NNC(=O)NCCO)c2ncccc2c1 (stereo not given) | > 100 | ≥ 250 | > 250
16 | 79% |  | > 100 | 6.7 | 9 | 20% | 121 | 16% | 5.2 |  |  | COc1cc(NC(C)CCCNC(=O)N(C)C(c2ccccc2)c2ccccc2)c2ncccc2c1 (stereo not given) | ≥ 100 | 21 | 10
17 | 63% |  | 15 | 19 | 2 | 64% | 17 | 90% | 14 | Not Active |  | COc1cc(NC(C)CCCNC(=O)NNC(=O)Nc2ccc(Cl)c(C(F)(F)F)c2)c2ncccc2c1 (stereo not given) | 13 | 18 | 19
18 | 69% |  | 27 | 16 | 5 | 44% | 22 | 73% | 10 |  | 44 | COc1cc(NC(C)CCCNC(=O)NNC(=O)N(C)C(c2ccccc2)c2ccccc2)c2ncccc2c1 (stereo not given) | 16 | 18 | 19
19 | 82% | 75 | ≥ 100 | 7.5 | 1 | 37% | 50 | 84% | 8 |  |  | COc1ccc(C(=NNC(=O)NNC(=O)NCCCC(C)Nc2cc(OC)cc3cccnc23)c2ccc(OC)cc2)cc1 (stereo not given) | 5 | 11 | 12
20 | 77% | 60.5 | > 100 | 34 | 5 | 19% | 129 | 26% | 10 |  |  | COc1ccc(/C(=N/NC(=O)NCCCC(C)Nc2cc(OC)cc3cccnc23)c2ccccc2)cc1 (stereo not given) | > 100 | 155 | ≥ 250
21 | 88% | 100 | 7 | 6.2 | 2 | 30% | 10 | 41% | 4.2 |  |  | COc1cc(NC(C)CCCNC(=O)NNC(=O)NCCNC(c2ccccc2)(c2ccccc2)c2ccccc2)c2ncccc2c1 (stereo not given) | 4 | 5 | 8
22 | 89% |  | > 100 | 92 | 6 | 20% | > 250 | 32% | 5 |  | 6 | COc1cc(NC(C)CCCNC(=O)NCCCC(C)Nc2cc(OC)cc3cccnc23)c2ncccc2c1 (stereo not given) | > 100 | 186 | > 250
23 | 61% |  | 23 | 3.6 | 4 | 20% | 3.9 | 21% | 3.1 |  | 43 | COc1cc(NC(C)CCCNC(=O)Nc2ccc(Cl)c(C(F)(F)F)c2)c2ncccc2c1 (stereo not given) | 28 | 4 | 3.4
24 | 70% |  | > 100 | > 250 | 16 | 61% | ≥ 250 | 82% | > 250 |  | 42 | COc1cc(NC(C)CCCNC(=O)NN)c2ncccc2c1 (stereo not given) | > 100 | ≥ 250 | ≥ 250
25 | 65% |  | > 100 | 92 | 0.2 | 18% | 67 | 37% | 87 |  | 31 | COc1cc(NC(C)CCCNC(=O)NNC(=O)NCCCC(C)Nc2cc(OC)cc3cccnc23)c2ncccc2c1 (stereo not given) | 94 | 69 | ≥ 250
